# Experimental data published in PMC8222343, “A new non-classical fold of varroa odorant-binding proteins reveals a wide open internal cavity” (Scientific Reports, 2021).
# Tests used:
# Assay type in all cases: binding
# VdesOBP2 = biological target: T1, VdesOBP2 (Varroa destructor, UniProt A0A7M7JBN7); experiment: intrinsic tryptophan fluorescence quenching; settings: excitation 295 nm, emission 335-340 nm
# T1 sequence (A0A7M7JBN7 16-163 limits assumed): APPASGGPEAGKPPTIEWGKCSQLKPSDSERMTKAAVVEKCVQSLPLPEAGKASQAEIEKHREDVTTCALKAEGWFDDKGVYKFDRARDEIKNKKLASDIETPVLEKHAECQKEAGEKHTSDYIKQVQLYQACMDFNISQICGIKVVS
# VdesOBP1 = biological target: T2, VdesOBP1 (Varroa destructor, UniProt A0A7M7KVA6); experiment: intrinsic tryptophan fluorescence quenching
# T2 construct: 147 residues; monomer
# T2 sequence (A0A7M7KVA6 16-162): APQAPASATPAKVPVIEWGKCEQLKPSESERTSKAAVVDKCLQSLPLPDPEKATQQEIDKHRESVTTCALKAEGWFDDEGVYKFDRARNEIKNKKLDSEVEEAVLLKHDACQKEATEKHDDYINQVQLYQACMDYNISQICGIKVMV
# VdesOBP5 = biological target: T3, VdesOBP5 (Varroa destructor, UniProt A0A7M7KHR4); experiment: fluorescent probe titration; settings: read-out: KNPN
# T3 sequence (A0A7M7KHR4 22-231): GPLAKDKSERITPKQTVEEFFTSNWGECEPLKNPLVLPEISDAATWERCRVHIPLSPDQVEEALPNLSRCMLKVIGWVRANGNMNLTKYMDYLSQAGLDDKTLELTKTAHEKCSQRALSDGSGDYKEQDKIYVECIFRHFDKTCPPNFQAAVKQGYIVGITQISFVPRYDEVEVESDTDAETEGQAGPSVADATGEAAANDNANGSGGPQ
# Excerpt: fluorescent probe titration on VdesOBP5 | with VdesOBP4 and VdesOBP5 we obtained clear binding curves using 1-NPN as the fluorescent reporter
# [1] = excitation 295 nm, emission 335-340 nm
Compound,quenching of intrinsic tryptophan fluorescence (VdesOBP2),quenching of intrinsic tryptophan fluorescence (VdesOBP1; [1]),Kd (VdesOBP5),"quenching of intrinsic tryptophan fluorescence (VdesOBP1; dose-dependent quenching, probe emission itself unchanged)"
COc1cc(/C=C/C=O)ccc1O [coniferyl aldehyde],they determined significant quenching of intrinsic tryptophan fluorescence in VdesOBP1 and VdesOBP2,they determined significant quenching of intrinsic tryptophan fluorescence in VdesOBP1 and VdesOBP2,,
CC1=C(C=O)C(C)(C)CC=C1 [safranal],they determined significant quenching of intrinsic tryptophan fluorescence in VdesOBP1 and VdesOBP2,they determined significant quenching of intrinsic tryptophan fluorescence in VdesOBP1 and VdesOBP2,,
COc1cc(C=O)ccc1O [vanillin],they determined significant quenching of intrinsic tryptophan fluorescence in VdesOBP1 and VdesOBP2,they determined significant quenching of intrinsic tryptophan fluorescence in VdesOBP1 and VdesOBP2,,
c1ccc(Nc2cccc3ccccc23)cc1 [N-phenyl-1-naphthylamine],,,4.3 µM,we observed a dose-dependent quenching of the intrinsic tryptophan fluorescence
